In brackets after ≈: the same amount, converted by molar mass. Read-outs that look alike come from different tables or passages of the source.
How the values were obtained:
Assay type in all cases: cell-based
[1] = system: Staphylococcus epidermidis; assay: MIC by NCCLS broth microdilution, 1100 Japanese clinical isolates 1997-1998; conditions: for MIC50 / MIC90: Staphylococcus epidermidis
Streptococcus pneumoniae = assay: MIC by agar dilution (NCCLS), 411 isolates Buenos Aires 1998-99; conditions: for MIC / MIC90: Streptococcus pneumoniae; for MIC90: read-out: MIC90
Pseudomonas aeruginosa = assay: MIC by agar dilution (NCCLS), 322 nosocomial Gram negative isolates, Athens 1998; conditions: n = 57 isolates
P. aeruginosa [2] = assay: MIC and MBC by microdilution in Mueller-Hinton broth, uropathogens
Procedure: (§1) MICs and MBCs were determined by a microdilution method with Mueller-Hinton broth. An inoculum of 1.3-9.4 x 10^5 colony forming units (CFU) per ml was used.
(§2) Strains included a reference strain E. coli ATCC 25922, susceptible to nalidixic acid (Nal-S) and the following clinical isolates obtained from complicated UTI patients: E. coli (resistant to nalidixic acid), K. pneumoniae, P. mirabilis , P. aeruginosa, […] (3 strains) and Enterococcus faecalis (2 strains).

E. coli = assay: as above
Procedure: as §1, §2

S. aureus = assay: as above; conditions: Staphylococcus aureus
Procedure: as §1, §2

P. mirabilis = assay: as above
Procedure: as §1, §2

K. pneumoniae = assay: as above
Procedure: as §1, §2

E. faecalis [3] = assay: as above; conditions: Enterococcus faecalis
Procedure: as §1, §2

P. aeruginosa [4] = assay: MIC by two-fold serial agar dilution, quinolone-resistant strains; conditions: Pseudomonas aeruginosa
E. faecalis [5] = assay: Urinary bactericidal titers (UBT) and AUBTC of volunteers' urine; conditions: urine after gemifloxacin 320 mg or ofloxacin 400 mg
[6] = Staphylococcus epidermidis oxacillin susceptible (n=35)
[7] = Staphylococcus epidermidis oxacillin resistant (n=43)
[8] = Streptococcus pneumoniae (n = 90)
[9] = S. aureus Laboratory No. 83, inoculum 7.1 CFU 10^5/ml
[10] = S. aureus Laboratory No. 161, inoculum 9.4 CFU 10^5/ml
[11] = S. aureus Laboratory No. 636, inoculum 5.6 CFU 10^5/ml
[12] = E. faecalis Laboratory No. 55, inoculum 6.0 CFU 10^5/ml
[13] = E. faecalis Laboratory No. 60, inoculum 7.0 CFU 10^5/ml

SMILES: CO/N=C1\CN(c2nc3c(cc2F)c(=O)c(C(=O)O)cn3C2CC2)CC1CN (racemic) [Gemifloxacin, (R,S)-7-(3-aminomethyl-4-methoxyiminopyrrolidin-1-yl)-1-cyclopropyl-6-fluoro-4-oxo-1,4-dihydro-1,8-naphthyridine-3-carboxylic acid]
- MIC Range [1, 6]: ≤0.008 to 2 µg/mL
- MIC50 [1, 7]: 0.5 µg/mL (≈ 1.28 µM)
- MIC90 [1, 7]: 2 µg/mL (≈ 5.14 µM)
- MIC50 [1, 6]: 0.032 µg/mL (≈ 0.0822 µM)
- MIC90 [1, 6]: 0.5 µg/mL (≈ 1.28 µM)
- MIC (Streptococcus pneumoniae): 0.125 µg/mL (≈ 0.321 µM)
- MIC Range (Streptococcus pneumoniae; [8]): ≤0.004 to 0.125 µg/mL
- MIC (Streptococcus pneumoniae; Ciprofloxacin-resistant S. pneumoniae, Strain 1, read-out: MIC): 0.03 µg/mL (≈ 0.077 µM)
- MIC (Streptococcus pneumoniae; Ciprofloxacin-resistant S. pneumoniae, Strain 2, read-out: MIC): 0.06 µg/mL (≈ 0.154 µM)
- MIC (Streptococcus pneumoniae; Ciprofloxacin-resistant S. pneumoniae, Strain 4, read-out: MIC): 0.06 µg/mL (≈ 0.154 µM)
- MIC90 (Streptococcus pneumoniae; S. pneumoniae, Penicillin intermediate (n = 17)): 0.03 µg/mL (≈ 0.077 µM)
- MIC90 (Streptococcus pneumoniae; S. pneumoniae, Penicillin resistant (n = 4)): 0.03 µg/mL (≈ 0.077 µM)
- MIC90 (Streptococcus pneumoniae; S. pneumoniae, Penicillin susceptible (n = 69)): 0.03 µg/mL (≈ 0.077 µM)
- MIC90 (Streptococcus pneumoniae; [8]): 0.03 µg/mL (≈ 0.077 µM)
- MIC50 (Pseudomonas aeruginosa): 1 µg/mL (≈ 2.57 µM)
- MIC90 (Pseudomonas aeruginosa): > 64 µg/mL
- MIC (P. aeruginosa [2]; P. aeruginosa Laboratory No. 568, inoculum 5.6 CFU 10^5/ml): 1 µg/mL (≈ 2.57 µM)
- MBC (P. aeruginosa [2]; Pseudomonas aeruginosa, P. aeruginosa Laboratory No. 568, inoculum 5.6 CFU 10^5/ml): 2 µg/mL (≈ 5.14 µM)
- MIC (P. aeruginosa [2]; Pseudomonas aeruginosa, P. aeruginosa clinical isolate, read-out: MIC): 1 µg/mL (≈ 2.57 µM)
- MIC (E. coli; E. coli ATCC 25922, inoculum 1.3 CFU 10^5/ml): 0.016 µg/mL (≈ 0.0411 µM)
- MIC (E. coli; E. coli Laboratory No. 523, inoculum 3.4 CFU 10^5/ml): 0.06 µg/mL (≈ 0.154 µM)
- MIC (E. coli; Escherichia coli, ATCC25922, E. coli ATCC 25922 (reference strain), read-out: MIC): 0.016 µg/mL (≈ 0.0411 µM)
- MBC (E. coli; Escherichia coli, ATCC25922, E. coli ATCC 25922, inoculum 1.3 CFU 10^5/ml): 0.016 µg/mL (≈ 0.0411 µM)
- MBC (E. coli; Escherichia coli, E. coli Laboratory No. 523, inoculum 3.4 CFU 10^5/ml): 0.06 µg/mL (≈ 0.154 µM)
- MIC (E. coli; Escherichia coli, E. coli clinical isolate (0.06/0.5), read-out: MIC): 0.06 µg/mL (≈ 0.154 µM)
- MBC (S. aureus; [9]): 0.008 µg/mL (≈ 0.0205 µM)
- MIC (S. aureus; [9]): 0.008 µg/mL (≈ 0.0205 µM)
- MBC (S. aureus; [10]): 0.25 µg/mL (≈ 0.642 µM)
- MIC (S. aureus; [10]): 0.25 µg/mL (≈ 0.642 µM)
- MBC (S. aureus; [11]): 2 µg/mL (≈ 5.14 µM)
- MIC (S. aureus; [11]): 2 µg/mL (≈ 5.14 µM)
- MIC (S. aureus; S. aureus isolate (0.008/0.25)): 0.008 µg/mL (≈ 0.0205 µM)
- MIC (S. aureus; S. aureus isolate (0.25/4)): 0.25 µg/mL (≈ 0.642 µM)
- MIC (S. aureus; S. aureus isolate (2/32), quinolone-resistant): 2 µg/mL (≈ 5.14 µM)
- MIC (P. mirabilis; P. mirabilis Laboratory No. 414, inoculum 2.5 CFU 10^5/ml): 0.125 µg/mL (≈ 0.321 µM)
- MIC (P. mirabilis; Proteus mirabilis): 0.125 µg/mL (≈ 0.321 µM)
- MBC (P. mirabilis; Proteus mirabilis, P. mirabilis Laboratory No. 414, inoculum 2.5 CFU 10^5/ml): 0.25 µg/mL (≈ 0.642 µM)
- MIC (K. pneumoniae; K. pneumoniae Laboratory No. 595, inoculum 3.7 CFU 10^5/ml): 0.03 µg/mL (≈ 0.077 µM)
- MBC (K. pneumoniae; Klebsiella pneumoniae, K. pneumoniae Laboratory No. 595, inoculum 3.7 CFU 10^5/ml): 0.03 µg/mL (≈ 0.077 µM)
- MIC (K. pneumoniae; Klebsiella pneumoniae, K. pneumoniae clinical isolate, read-out: MIC): 0.03 µg/mL (≈ 0.077 µM)
- MBC (E. faecalis [3]; [12]): 2 µg/mL (≈ 5.14 µM)
- MIC (E. faecalis [3]; [12]): 0.5 µg/mL (≈ 1.28 µM)
- MBC (E. faecalis [3]; [13]): 0.06 µg/mL (≈ 0.154 µM)
- MIC (E. faecalis [3]; [13]): 0.06 µg/mL (≈ 0.154 µM)
- MIC (E. faecalis [3]; E. faecalis isolate (0.06/2)): 0.06 µg/mL (≈ 0.154 µM)
- MIC (E. faecalis [3]; E. faecalis isolate (0.5/32)): 0.5 µg/mL (≈ 1.28 µM)
- MIC (P. aeruginosa [4]): 2 µg/mL (≈ 5.14 µM)
- AUBTC (range) (E. faecalis [5]; E. faecalis (13) Laboratory No. 55): 39 (0-102)
- AUBTC (range) (E. faecalis [5]; E. faecalis (16) Laboratory No. 60): 246 (96-516)
